Measurements: US20030153513A1, “Preventives or remedies for obesity or fatty liver” (priority 2000, published 2003)

Legend:
Type in all cases: in vivo
C57BL/6J mice [1] = experiment: Test Example 1: triglyceride level in liver tissue, normal mice, 12 weeks oral; settings: oral administration for 12 weeks, 10 mg/kg/day, 4 h after final dose
Protocol: (§1) In the test example, each 10 of the male KKA^y/Ta Jcl mice and C57BL/6J mice aged 10 weeks were used as obesity model mice and non-obesity normal model mice, respectively. The compound of Preparation 1 was orally administered to the animals at 10 mg/kg/day for 12 weeks continuously, and the body weights of the animals were daily measured. Four hours after the final administration of the compound, the animals were sacrificed, and the levels of triglyceride in the liver tissues were determined.
(§2) The compound of Preparation 1 had been suspended in an aqueous solution of 5% gum arabic (Nakarai Chemcial, Lot. M5E5329) to provide a 0.1% suspension for use. As a control, only a vehicle (5% aqueous gum arabic solution) was administered as well, and the triglyceride level was also determined.

KKA^y/Ta Jcl mice [2] = experiment: Test Example 1: triglyceride level in liver tissue, obesity model mice, 12 weeks oral; settings: 10 mg/kg/day
Protocol: as §1, §2

KKA^y/Ta Jcl mice [3] = experiment: Test Example 1: body weight increase, obesity model mice, 12 weeks oral; settings: 10 mg/kg/day oral, FIG. 1-B
Protocol: as §1, §2

KKAy/Ta Jcl mice = experiment: Test Example 2: triglyceride level in liver tissue, obesity model mice, 2 weeks
Protocol: In a similar way to Test Example 1, the male KKAy/Ta Jcl mice aged 10 weeks were orally administered with the compound of Preparation 1 at 10 mg/kg/day, and fed a diet containing 3% cholestyramine (corresponding to about 4 g/kg/day) for two weeks continuously, and the level of triglyceride in the liver tissue was determined (eight animals per group). Also, the control was administered with only a vehicle (5% aqueous gum arabic solution).

C57BL/6J mice [4] = experiment: Test Example 1: body weight increase, non-obesity normal mice, 12 weeks oral; settings: non-obesity normal C57BL/6J mice, 10 mg/kg/day oral, FIG. 1-A
Protocol: as §1, §2

SMILES: CCC(CC)CC(=O)c1c(C(=O)OC)c(-c2ccc(OC)c(OC)c2)c2c(OC)c(OC)c(OC)cc2c1O [Compound of Prep. 1, Methyl 1-(3,4-dimethoxyphenyl)-3-(3-ethylvalelyl)-4-hydroxy-6,7,8-trimethoxy-2-naphthoate]
- triglyceride (liver tissue) (C57BL/6J mice [1]): 13.2 ± 1.2 mg/g
- triglyceride level in the liver tissue compared to the control (in words) (KKA^y/Ta Jcl mice [2]; 12 weeks oral, as shown in Table 1): significant decrease
- triglyceride (liver tissue) (KKA^y/Ta Jcl mice [2]; KKA^y mice, oral administration for 12 weeks, 4 h after final dose): 74.7 ± 7.4 mg/g
- inhibition of weight gain (KKA^y/Ta Jcl mice [3]): significant inhibition of weight gain
- triglyceride level in the liver tissue compared to the control (in words) (KKAy/Ta Jcl mice; 2 weeks, as shown in Table 2): significant decrease
- triglyceride (liver tissue) (KKAy/Ta Jcl mice; administration for 2 weeks, Prep. 1 10 mg/kg/day oral, cholestyramine 3% in diet (about 4 g/kg/day)): 49.2 ± 7.7 mg/g
- rate of increase in body weight compared with the control (C57BL/6J mice [4]): no significant difference
